Assay results published in patent publication US10662156B2, “Guanidine derivative and medical use thereof” (Toray Industries, Inc., priority 2016, dated 2020).

Columns and labels:
[1] = biological target: recombinant GST fusion MALT1 (human MALT1) (Homo sapiens (Human), UniProt Q9UDY8); experiment: Evaluation of inhibition of protease activity of MALT1 (cleavage of fluorescent peptide substrate Ac-LRSR-AMC); format: biochemical; conditions: substrate Ac-LRSR-AMC 20 μmol/L, 30° C. for 80 minutes
Sequence of recombinant GST fusion MALT1 (human MALT1) (Q9UDY8 whole entry, the tested form may be a part): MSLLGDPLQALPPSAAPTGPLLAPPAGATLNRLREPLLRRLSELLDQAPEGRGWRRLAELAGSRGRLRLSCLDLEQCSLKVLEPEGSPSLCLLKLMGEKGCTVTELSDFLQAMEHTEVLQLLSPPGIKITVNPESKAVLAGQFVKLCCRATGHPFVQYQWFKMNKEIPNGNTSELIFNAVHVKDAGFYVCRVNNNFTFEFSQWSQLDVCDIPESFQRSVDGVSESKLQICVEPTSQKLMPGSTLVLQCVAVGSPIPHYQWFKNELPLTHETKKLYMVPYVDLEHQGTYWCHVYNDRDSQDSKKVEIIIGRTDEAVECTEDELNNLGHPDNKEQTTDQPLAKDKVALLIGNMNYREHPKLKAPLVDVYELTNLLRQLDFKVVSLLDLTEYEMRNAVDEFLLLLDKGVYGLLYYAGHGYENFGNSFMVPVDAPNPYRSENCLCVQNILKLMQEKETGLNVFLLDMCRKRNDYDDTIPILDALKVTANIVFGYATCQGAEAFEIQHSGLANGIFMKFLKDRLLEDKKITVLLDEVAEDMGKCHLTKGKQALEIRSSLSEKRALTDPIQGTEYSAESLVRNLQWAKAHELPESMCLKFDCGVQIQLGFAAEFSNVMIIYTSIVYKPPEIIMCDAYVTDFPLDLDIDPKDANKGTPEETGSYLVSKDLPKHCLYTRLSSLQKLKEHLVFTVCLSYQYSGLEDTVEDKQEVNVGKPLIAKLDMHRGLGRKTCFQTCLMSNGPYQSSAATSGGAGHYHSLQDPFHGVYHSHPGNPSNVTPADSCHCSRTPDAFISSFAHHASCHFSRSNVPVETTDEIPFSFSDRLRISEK
In short: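 GST-tagged full-length human MALT1 from E. coli ([…]) was preincubated with compound 30 min at room temperature. Buffer: MES, 150 mM NaCl, 10% sucrose, 0.1% CHAPS, 10 mM DTT, 1 mol/L ammonium citrate. Ac-LRSR-AMC (20 μM final) was then cleaved 80 min at 30 °C; AMC fluorescence (Ex 380/Em 460) gain gave % inhibition versus no-enzyme and DMSO controls.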

[2] = tested on: imiquimod-induced psoriasis mouse models; experiment: Suppressive effect on auricular hypertrophy in imiquimod-induced psoriasis mouse model; format: in vivo, BALB/c male mice; conditions: for change in the thickness of the auricle (increase): post-induction days 4 to 7, post-induction day 8 vs before induction, vehicle group 198 μm; for change in the thickness of the auricle compared to the vehicle administration group (in words): P<0.05
Experimental: The guanidine derivative (I) or the pharmacologically acceptable salt thereof was evaluated for its exertion of a therapeutic effect on psoriasis, one type of autoimmune disease, in an in vivo experimental system using imiquimod-induced psoriasis mouse models in accordance with the method described in the literature (The Journal of Dermatological Science, 2014, Vol. 76, No. 2, p. 96-103). Specifically, the evaluation was conducted by verifying the suppressive effect of the compound on auricular hypertrophy by using, as an index, the thickness of the auricle increased with the progression of symptoms in imiquimod-induced psoriasis models.
Seven-week-old BALB/c male mice (Charles River Laboratories Japan, Inc.) were preliminarily bred and then used at the age of 8 weeks. To induce psoriasis-like symptoms, 5 mg/ear of Beselna Cream 5% was applied (imiquimod dose: 0.25 mg/body/day) to both the ears of each mouse once a day for 8 days from the date of initial administration of imiquimod (hereinafter, referred to as post-induction day 0) to post-induction day 7. A dosing vehicle was prepared by adding Tween 20 to a 0.5% (w/v) aqueous methylcellulose solution to attain a final concentration of 0.025% (v/v). A test compound was suspended in the dosing vehicle to prepare a drug solution. The drug solution was orally administered (dosing volume: 10 mL/kg) twice a day (a.m. and p.m.) for 4 days from post-induction days 4 to 7. The test compound used was the compound of Example 2, and groups given the compound of Example 2 were designated as Example 2 compound administration groups. A group given only the dosing vehicle in the same way as above was established as a vehicle administration group.
The thickness of the auricle before imiquimod administration (before induction) at the date of induction and the thickness of the auricle at post-induction day 8 were measured using a digital micrometer (Mitsutoyo Corp.), and the change therebetween (the thickness of the auricle at post-induction day 8—the thickness of the auricle before induction) was used as an index for drug efficacy evaluation. Statistical analysis was carried out using statistical analysis software EXSAS (ver. 7.6). As a result of studying homoscedasticity among the groups by the Bartlett's test, the variance was homogeneous. Therefore, the parametric Dunnett test (two-tailed) was carried out. As for the drug dependence of the drug efficacy of the compound of Example 2 on auricular hypertrophy, as a result of studying homoscedasticity between the vehicle group and each compound administration group by the Bartlett's test, the variance was homogeneous. Therefore, the Williams test (two-tailed) was carried out. P<0.05 was confirmed as significant difference.
The ordinate of the drawing depicts the change in the thickness of the auricle (μm), and the abscissa depicts each administration group. The term “Compound of Example 2” depicts the Example 2 compound administration groups.

Cl.N/C(=N\S(=O)(=O)c1ccccc1)NCc1cnc(-c2ccc(Cl)cc2)c(-c2ccc(Cl)cc2)c1 [Compound of Example 2, N-(amino(((5,6-bis(4-chlorophenyl)pyridin-3-yl)methyl)amino)methylene)benzenesulfonamide Hydrochloride] was tested, and the IC50 [1] was 270 nM, the “change in the thickness of the auricle (increase)” value (from here on “change … (increase)”) ([2]; 7.5 mg/kg orally twice a day) was 179 μm and the “change … (increase)” value ([2]; 15 mg/kg orally twice a day) was 131 μm. For the same compound, the “change in the thickness of the auricle compared to the vehicle administration group (in words)” value ([2]; 15 mg/kg orally twice a day) was “significantly decreased”, the “change … (increase)” value ([2]; 30 mg/kg orally twice a day) was 118 μm and the “change in the thickness of the auricle compared to the vehicle administration group (in words)” value ([2]; 30 mg/kg orally twice a day) was “significantly decreased”.
